{
  "source": "patent US20180064681A1",
  "about": "“THERAPEUTIC COMBINATIONS OF CURCUMINOIDS AND FLAVONOIDS” (Primus Pharmaceuticals, Inc., priority 2015, published 2018)",
  "key": {"[1]": {"test_system": "MMP-3 mRNA", "assay": "MMP-3 mRNA expression in LPS-stimulated human articular chondrocytes (real-time PCR)", "format": "cell-based", "details": "LPS 2 μg/ml, 4 hours", "procedure": "(§1) Human articular chondrocytes were cultured in six well culture Petri dishes at a density of 2.5×10^5 cells/well, in a specific chondrocyte growth medium supplemented with 1% antibiotic—antimycotic mixture, at 37° C. in 5% CO2 humidified incubator. The medium was renewed every 2 days. […] Finally, the cells and medium underwent molecular evaluation 4 hours after the treatments.\n(§2) Total RNA was isolated from human chondrocytes for reverse-PCR real time evaluation of IL-1beta, COX2, MMP1, MMP-3, MMP9, MMP13, NF-kB (p50), NF-kB (p65), IL-13 and 5-LOX mRNA (Real Time PCR system, mod 7500, Applied Biosystems, Carlsbad, Calif.) using Trizol Reagent Kit (Life Technologies, Monza, Italy). The first strand of cDNA was synthesized from 5.0 μg total RNA using a high capacity cDNA Archive kit (Applied Biosystems, Carlsbad, Calif.). β-actin mRNA was used as an endogenous control to allow the relative quantification. […] The amplified PCR products were quantified by measuring the calculated cycle thresholds (CT) of IL-1beta, COX2, MMP1, MMP-3, MMP9, MMP13, NF-kB (p50), NF-kB (p65), IL-13 and 5-LOX and β-Actin mRNA. The amounts of specific mRNA in samples were calculated using the 2^ΔΔCT method. The mean value of normal chondrocytes target levels became the calibrator and the results are expressed as the n-fold difference relative to normal controls (relative expression levels). […]"}, "[2]": {"test_system": "IL-1β mRNA", "assay": "IL-1β mRNA expression in LPS-stimulated human articular chondrocytes (real-time PCR)", "format": "cell-based", "details": "LPS 2 μg/ml, 4 hours", "procedure": "as §1, §2"}, "[3]": {"test_system": "IL-1β mRNA", "assay": "Median effect / combination index analysis (Chou and Talalay) of reduction of IL-1β mRNA levels in chondrocytes", "format": "cell-based", "details": "Homo sapiens, Chondrocyte, read-out: IC50 (Dm) for reduction of IL-1β mRNA levels", "procedure": "We then plotted the dose-response curve (FIG. 21) as log (fa/fu) with respect to log (D) to generate the Median Effect Plot (FIG. 22).\nThe CI was calculated as:"}, "[4]": {"test_system": "5-LOX mRNA", "assay": "5-LOX mRNA expression in LPS-stimulated human articular chondrocytes (real-time PCR)", "format": "cell-based", "details": "LPS 2 μg/ml, 4 hours; curcumin 10 μg/ml", "procedure": "as §1, §2"}, "[5]": {"test_system": "NF-κB p65 mRNA", "assay": "NF-κB (p65) mRNA expression in LPS-stimulated human articular chondrocytes (real-time PCR)", "format": "cell-based", "details": "LPS 2 μg/ml, 4 hours", "procedure": "as §1, §2"}, "[6]": {"test_system": "IL-13 mRNA", "assay": "IL-13 mRNA expression in LPS-stimulated human articular chondrocytes (real-time PCR)", "format": "cell-based", "details": "LPS 2 μg/ml, 4 hours; curcumin alone 5 or 10 μg/ml", "procedure": "as §1, §2"}, "[7]": {"test_system": "COX-2 mRNA", "format": "cell-based, human", "procedure": "as §1, §2"}, "[8]": {"test_system": "MMP-1 mRNA", "assay": "MMP-1 mRNA expression in LPS-stimulated human articular chondrocytes (real-time PCR)", "format": "cell-based", "details": "LPS 2 μg/ml, 4 hours", "procedure": "as §1, §2"}},
  "data": [
    {"smiles": "COc1cc(/C=C/C(=O)CC(=O)/C=C/c2ccc(O)c(OC)c2)ccc1O", "note": "[curcumin]", "values": [
      {"measurement": "MMP-3 mRNA expression", "setting": "[1]; curcumin 5 μg/ml alone", "value": "significantly reduced"},
      {"measurement": "MMP-3 mRNA expression", "setting": "[1]; curcumin 10 μg/ml", "value": "additional decrease in a concentration-dependent manner"},
      {"measurement": "IL-1β mRNA expression", "setting": "[2]; curcumin 5 μg/ml", "value": "significantly blunted"},
      {"measurement": "IL-1β mRNA expression", "setting": "[2]; curcumin 10 μg/ml alone", "value": "further decreased"},
      {"measurement": "IC50", "setting": "[3]", "value": 14.3, "unit": "µM"},
      {"measurement": "5-LOX mRNA expression", "setting": "[4]", "value": "blunted"},
      {"measurement": "NF-κB p65 mRNA expression", "setting": "[5]; curcumin 5 μg/ml", "value": "failed to result in any change"},
      {"measurement": "NF-κB p65 mRNA expression", "setting": "[5]; curcumin 10 μg/ml alone", "value": "more pronounced decrease"},
      {"measurement": "IL-13 mRNA expression", "setting": "[6]", "value": "significantly increased in a dose dependent manner"},
      {"measurement": "COX-2 mRNA expression", "setting": "[7]", "value": "significantly reduced"},
      {"measurement": "MMP-1 mRNA expression", "setting": "[8]; curcumin 5 μg/ml alone", "value": "significantly reduced"},
      {"measurement": "MMP-1 mRNA expression", "setting": "[8]; curcumin 10 μg/ml", "value": "additional decrease in a concentration-dependent manner"}
    ]}
  ]
}
